From US20210198277A1, “AMINE-SUBSTITUTED ARYL OR HETEROARYL COMPOUNDS” (Epizyme, Inc., priority 2016, published 2021)

What was measured:
EHMT1 = molecular target: T1, EHMT1 (Homo sapiens, UniProt Q9H9B1); assay: EHMT1 enzyme assay on peptide substrate (EHMT1 PEP); assay type: biochemical; details: Table VI; read-out: EHMT1 PEP IC50
T1 sequence (Q9H9B1 1-1298): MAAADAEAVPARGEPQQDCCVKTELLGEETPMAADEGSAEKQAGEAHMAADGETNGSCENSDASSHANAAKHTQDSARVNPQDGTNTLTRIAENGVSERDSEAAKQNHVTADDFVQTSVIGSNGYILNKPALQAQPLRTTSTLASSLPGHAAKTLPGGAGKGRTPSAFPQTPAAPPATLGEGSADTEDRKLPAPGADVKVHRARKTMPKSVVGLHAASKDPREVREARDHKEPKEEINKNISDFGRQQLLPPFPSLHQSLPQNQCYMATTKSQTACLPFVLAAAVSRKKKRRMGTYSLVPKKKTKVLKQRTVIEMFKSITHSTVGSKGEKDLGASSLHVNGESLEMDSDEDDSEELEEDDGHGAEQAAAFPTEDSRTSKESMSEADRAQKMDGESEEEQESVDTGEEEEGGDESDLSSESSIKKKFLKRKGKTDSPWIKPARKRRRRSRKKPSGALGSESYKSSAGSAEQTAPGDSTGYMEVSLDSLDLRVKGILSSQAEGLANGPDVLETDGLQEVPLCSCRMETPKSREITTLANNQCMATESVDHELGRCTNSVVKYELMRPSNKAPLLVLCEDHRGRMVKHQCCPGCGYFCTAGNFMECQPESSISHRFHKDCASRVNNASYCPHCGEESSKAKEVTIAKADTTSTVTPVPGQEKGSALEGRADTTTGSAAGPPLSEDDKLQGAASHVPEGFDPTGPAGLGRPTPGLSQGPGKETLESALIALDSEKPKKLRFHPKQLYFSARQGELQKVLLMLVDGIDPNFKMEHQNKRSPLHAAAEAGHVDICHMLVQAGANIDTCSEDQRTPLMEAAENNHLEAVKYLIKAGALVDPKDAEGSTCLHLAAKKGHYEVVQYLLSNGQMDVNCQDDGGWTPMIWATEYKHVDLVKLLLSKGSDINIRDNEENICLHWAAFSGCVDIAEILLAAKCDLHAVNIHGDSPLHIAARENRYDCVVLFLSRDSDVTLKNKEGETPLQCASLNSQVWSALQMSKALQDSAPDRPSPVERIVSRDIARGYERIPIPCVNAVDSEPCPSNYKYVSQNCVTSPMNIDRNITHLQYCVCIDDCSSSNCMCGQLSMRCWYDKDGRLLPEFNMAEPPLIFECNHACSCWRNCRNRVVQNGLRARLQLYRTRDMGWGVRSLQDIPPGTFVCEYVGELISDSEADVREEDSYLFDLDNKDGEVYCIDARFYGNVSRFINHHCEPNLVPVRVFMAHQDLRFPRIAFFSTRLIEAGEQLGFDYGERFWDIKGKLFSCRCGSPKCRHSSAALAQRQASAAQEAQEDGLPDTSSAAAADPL

human EHMT2 913-1193 = molecular target: T2, human EHMT2 913-1193 (Homo sapiens, UniProt Q96KQ7); assay: EHMT2 enzyme assay on histone peptide substrate (EHMT2 PEP); assay type: biochemical; details: Table VI; read-out: EHMT2 PEP IC50
T2 construct: recombinant purified human EHMT2 913-1193, Viva; purchased Viva
T2 sequence (Q96KQ7 913-1193): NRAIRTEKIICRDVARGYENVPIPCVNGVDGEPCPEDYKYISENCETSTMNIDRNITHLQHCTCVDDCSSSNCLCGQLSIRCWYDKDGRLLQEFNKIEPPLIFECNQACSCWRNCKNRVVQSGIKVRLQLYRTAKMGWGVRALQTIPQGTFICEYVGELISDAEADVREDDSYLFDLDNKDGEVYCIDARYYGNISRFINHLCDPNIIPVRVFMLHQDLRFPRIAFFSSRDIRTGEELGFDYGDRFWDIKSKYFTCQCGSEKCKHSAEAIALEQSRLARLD
Procedure, shortened: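 Compounds were tested as 3-fold dilutions, 10 points from a 50 μM final top (2% DMSO), after 30-min preincubation with 0.031 nM enzyme in Bicine buffer pH 7.5. Transfer of ^3H-methyl from ^3H-SAM to biotinylated histone peptide ran 60 min at room temperature and was detected by streptavidin Flashplate scintillation.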

COc1cc(NC2CCNCC2)ncc1OCC1CCN(C)C1 (stereo not drawn) [Compound 604]
IC50 (EHMT1): 0.1 to 1 µM
IC50 (human EHMT2 913-1193): 0.1 to 1 µM

COc1nc(NC2CCNCC2)ncc1OCC1CCN(C)C1 (stereo not drawn) [Compound 605]
IC50 (EHMT1): > 10 µM
IC50 (human EHMT2 913-1193): > 10 µM

CCN1CC(COc2cc(Nc3nc(C)cc4[nH]ncc34)ncc2OC)C1 [Compound 607]
IC50 (EHMT1): < 0.1 µM
IC50 (human EHMT2 913-1193): 0.1 to 1 µM

CNc1cc(C)nc(Nc2cc(OCCCN3CCCC3)n3cnnc3c2)n1 [Compound 628]
IC50 (EHMT1): > 10 µM
IC50 (human EHMT2 913-1193): > 10 µM

COc1cc(NC2CCNCC2)ncc1OCC1CCNC1 (stereo not drawn) [Compound 629]
IC50 (EHMT1): < 0.1 µM
IC50 (human EHMT2 913-1193): 0.1 to 1 µM

CCc1nc(NC2CCNCC2)ncc1OCC1CCN(C)C1 (stereo not drawn) [Compound 630]
IC50 (EHMT1): > 10 µM
IC50 (human EHMT2 913-1193): > 10 µM

CCc1nc(NC2CCNCC2)ncc1OCC1CN(C(C)C)C1 [Compound 631]
IC50 (EHMT1): > 10 µM
IC50 (human EHMT2 913-1193): > 10 µM

CN1CCC(Nc2ncc(OCC3CCN(C)C3)cn2)CC1 (stereo not drawn) [Compound 632]
IC50 (EHMT1): > 10 µM
IC50 (human EHMT2 913-1193): > 10 µM

CN1CCC(COc2cnc(N(C)C3CCNCC3)nc2)C1 (stereo not drawn) [Compound 633]
IC50 (EHMT1): > 10 µM
IC50 (human EHMT2 913-1193): > 10 µM

COc1cc(N(C)C2CCNCC2)ncc1OCC1CCN(C)C1 (stereo not drawn) [Compound 634]
IC50 (EHMT1): 0.1 to 1 µM
IC50 (human EHMT2 913-1193): 0.1 to 1 µM

COc1cc(N(C)C2CCNCC2)ncc1OCC1CCN(C)C1 (stereo not drawn) [Compound 635]
IC50 (EHMT1): 1 to 10 µM
IC50 (human EHMT2 913-1193): 1 to 10 µM

CC(C)N1CC(COc2cnc(NC3CCNCC3)nc2)C1 [Compound 636]
IC50 (EHMT1): > 10 µM
IC50 (human EHMT2 913-1193): > 10 µM

CC(C)N1CC[C@@H](COc2cnc(N(C)C3CCNCC3)nc2)C1 [Compound 637]
IC50 (EHMT1): > 10 µM
IC50 (human EHMT2 913-1193): > 10 µM

COc1cnc(Nc2cccn3cncc23)cc1OCCCN1CCCC1 [Compound 638]
IC50 (EHMT1): > 10 µM
IC50 (human EHMT2 913-1193): > 10 µM

COc1cnc(NC(=O)/C=C/CN(C)C)cc1OCCCN1CCCC1 [Compound 640]
IC50 (EHMT1): > 10 µM
IC50 (human EHMT2 913-1193): > 10 µM

CNc1cc(C)nc(Nc2cnc(OC)c(OC[C@@H]3CCNC3)c2)n1 [Compound 641]
IC50 (EHMT1): < 0.1 µM
IC50 (human EHMT2 913-1193): < 0.1 µM

COc1cc(Nc2ccc3[nH]ncc3c2)ncc1OCCCN1CCCC1 [Compound 643]
IC50 (EHMT1): > 10 µM
IC50 (human EHMT2 913-1193): > 10 µM

CNc1cc(C)nc(Nc2ccc(OC)c(CNCCN3CCCC3)c2)n1 [Compound 644, 2-N-[4-methoxy-3-([[2-(pyrrolidin-1-yl)ethyl]amino]methyl)phenyl]-4-N,6-dimethylpyrimidine-2,4-diamine]
IC50 (EHMT1): < 0.1 µM
IC50 (human EHMT2 913-1193): < 0.1 µM

CNc1cc(C)nc(Nc2ccc(OC)c(CN(C)CCN3CCCC3)c2)n1 [Compound 645]
IC50 (EHMT1): 1 to 10 µM
IC50 (human EHMT2 913-1193): > 10 µM

CCN1CCC(NCc2cc(Nc3nc(C)cc(NC)n3)ccc2OC)C1 (stereo not drawn) [Compound 646]
IC50 (EHMT1): 1 to 10 µM
IC50 (human EHMT2 913-1193): 1 to 10 µM

CCN1CC(NCc2cc(Nc3nc(C)cc(NC)n3)ccc2OC)C1 [Compound 647]
IC50 (EHMT1): 1 to 10 µM
IC50 (human EHMT2 913-1193): > 10 µM

COc1cc(Nc2ccc3[nH]ncc3n2)ncc1OCCCN1CCCC1 [Compound 648]
IC50 (EHMT1): 1 to 10 µM
IC50 (human EHMT2 913-1193): 1 to 10 µM

CCN1CC([C@H](C)Oc2cc(Nc3nc(C)cc(NC)n3)ccc2OC)C1 [Compound 649]
IC50 (EHMT1): 0.1 to 1 µM
IC50 (human EHMT2 913-1193): 0.1 to 1 µM

CCN1CC(N(C)Cc2cc(Nc3nc(C)cc(NC)n3)ccc2OC)C1 [Compound 650]
IC50 (EHMT1): > 10 µM
IC50 (human EHMT2 913-1193): > 10 µM

CCN1CCC(N(C)Cc2cc(Nc3nc(C)cc(NC)n3)ccc2OC)C1 (stereo not drawn) [Compound 651]
IC50 (EHMT1): 1 to 10 µM
IC50 (human EHMT2 913-1193): > 10 µM

COc1cc2c(C3CCN(C)CC3)c(F)c(C)nc2cc1OCCCN1CCCC1 [Compound 652]
IC50 (EHMT1): < 0.1 µM
IC50 (human EHMT2 913-1193): 0.1 to 1 µM

COc1cnc(Nc2cccc3nccn23)nc1OCCCN1CCCC1 [Compound 654]
IC50 (EHMT1): > 10 µM
IC50 (human EHMT2 913-1193): > 10 µM

COc1cnc(Nc2cccc3[nH]ncc23)nc1OCCCN1CCCC1 [Compound 655]
IC50 (EHMT1): > 10 µM
IC50 (human EHMT2 913-1193): > 10 µM

COc1cnc(Nc2cccc3nncn23)nc1OCCCN1CCCC1 [Compound 656]
IC50 (EHMT1): > 10 µM
IC50 (human EHMT2 913-1193): > 10 µM

COc1cc2c(C3CCN(C)CC3)nc(C)nc2cc1OCCCN1CCCC1 [Compound 658]
IC50 (EHMT1): 0.1 to 1 µM
IC50 (human EHMT2 913-1193): 0.1 to 1 µM

COc1cc2c(C3CCN(C(C)C)CC3)nc(C)nc2cc1OCCCN1CCCC1 [Compound 659]
IC50 (EHMT1): 0.1 to 1 µM
IC50 (human EHMT2 913-1193): 0.1 to 1 µM

CCN1CC(COc2cc3nc(C)cc(C4CCN(C)CC4)c3cc2OC)C1 [Compound 660]
IC50 (EHMT1): < 0.1 µM
IC50 (human EHMT2 913-1193): < 0.1 µM

CCN1CC(COc2cc3nc(C)cc(C4CCN(C(C)C)CC4)c3cc2OC)C1 [Compound 661]
IC50 (EHMT1): < 0.1 µM
IC50 (human EHMT2 913-1193): < 0.1 µM

CCN1CC[C@@H](COc2cc3nc(C)cc(C4CCN(C)CC4)c3cc2OC)C1 [Compound 662]
IC50 (EHMT1): < 0.1 µM
IC50 (human EHMT2 913-1193): < 0.1 µM

CCN1CC[C@@H](COc2cc3nc(C)cc(C4CCN(C(C)C)CC4)c3cc2OC)C1 [Compound 663]
IC50 (EHMT1): < 0.1 µM
IC50 (human EHMT2 913-1193): < 0.1 µM

CCN1CC(COc2cc3nc(C)nc(C4CCN(C)CC4)c3cc2OC)C1 [Compound 664]
IC50 (EHMT1): 1 to 10 µM
IC50 (human EHMT2 913-1193): 1 to 10 µM

CCN1CC(COc2cc3nc(C)nc(C4CCN(C(C)C)CC4)c3cc2OC)C1 [Compound 665]
IC50 (EHMT1): 1 to 10 µM
IC50 (human EHMT2 913-1193): 1 to 10 µM

CCN1CC[C@@H](COc2cc(Nc3nc(C)cc(NCC4CCOCC4)n3)ccc2OC)C1 [Compound 667]
IC50 (EHMT1): < 0.1 µM
IC50 (human EHMT2 913-1193): 0.1 to 1 µM

COc1cc2c(C3CCOCC3)cc(C)nc2cc1OCCCN1CCCC1 [Compound 668]
IC50 (EHMT1): 0.1 to 1 µM
IC50 (human EHMT2 913-1193): 0.1 to 1 µM

COc1cc2c(C3CCN(C(C)C)CC3)cc(C)nc2nc1OCCCN1CCCC1 [Compound 670]
IC50 (EHMT1): 0.1 to 1 µM
IC50 (human EHMT2 913-1193): 0.1 to 1 µM

CCc1cc(NC)nc(Nc2ccc(OC)c(OC[C@@H]3CCN(CC)C3)c2)n1 [Compound 671]
IC50 (EHMT1): < 0.1 µM
IC50 (human EHMT2 913-1193): 0.1 to 1 µM

CCN1CC[C@@H](COc2cc(Nc3nc(NC)cc(C(C)C)n3)ccc2OC)C1 [Compound 672]
IC50 (EHMT1): < 0.1 µM
IC50 (human EHMT2 913-1193): < 0.1 µM

CCN1CC[C@@H](COc2cc3nc(C)nc(C4CCN(C)CC4)c3cc2OC)C1 [Compound 673]
IC50 (EHMT1): 0.1 to 1 µM
IC50 (human EHMT2 913-1193): 0.1 to 1 µM

CCN1CC[C@@H](COc2cc3nc(C)nc(C4CCN(C(C)C)CC4)c3cc2OC)C1 [Compound 674]
IC50 (EHMT1): 1 to 10 µM
IC50 (human EHMT2 913-1193): 1 to 10 µM

CNc1cc(C)nc(Nc2cnc(OC)c(O)c2)n1 [Compound 676]
IC50 (EHMT1): > 10 µM
IC50 (human EHMT2 913-1193): > 10 µM
